# Measurements from PubChem BioAssay (NCI).
# Several values for one entry are separate records, joined by “and”; a condition that tells them apart may be missing. Identical values can stand only once.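 Cultured in 96-well plates, cells were exposed to test compound for 48 hours across five concentrations. GI50 = concentration required for 50% inhibition of growth. TGI is the concentration that stops growth completely.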
# Columns and labels:
# Experiment in all cases: NCI anticancer screen, dose series, 48 h
# [1] = test system: SK-MEL-28 melanoma
# [2] = test system: UACC-257 melanoma
# [3] = test system: HOP-92 NSCLC
# [4] = test system: 786-0 renal
# [5] = test system: SW-620 colon
# [6] = test system: NCI-H522 lung
# [7] = test system: MALME-3M melanoma
# [8] = test system: M14 melanoma
# [9] = test system: LOX IMVI melanoma
# [10] = test system: MDA-MB-231 breast
# [11] = test system: CCRF-CEM leukemia
# [12] = test system: HCT-116 colon
# [13] = test system: EKVX NSCLC
# [14] = test system: CAKI-1 renal
# [15] = test system: SF-295 CNS
# [16] = test system: DU-145 prostate
# [17] = test system: KM12 colon
# [18] = test system: UO-31 renal
# [19] = test system: MDA-MB-435
# [20] = test system: NCI-H460 lung
# [21] = test system: BT-549 breast
# [22] = test system: SF-268 CNS
# [23] = test system: NCI/ADR-RES ovarian
# [24] = test system: A549 NSCLC
# [25] = test system: SN12C renal
# [26] = test system: OVCAR-4 ovarian
# [27] = test system: RPMI-8226 leukemia
# [28] = test system: OVCAR-3 ovarian
# [29] = test system: SR leukemia
# [30] = test system: OVCAR-8 ovarian
# [31] = test system: HS 578T breast
# [32] = test system: SK-MEL-5 melanoma
# [33] = test system: COLO 205 colon
# [34] = test system: HCC-2998 colon
# [35] = test system: K-562 leukemia
# [36] = test system: SK-OV-3 ovarian
# [37] = test system: MCF7 breast
# [38] = test system: SK-MEL-2 melanoma
# [39] = test system: SNB-19 CNS
# [40] = test system: NCI-H226 lung
# [41] = test system: PC-3 prostate
# [42] = test system: SNB-75 CNS
# [43] = test system: SF-539 CNS
# [44] = test system: HOP-62 NSCLC
# [45] = test system: TK-10 renal
# [46] = test system: OVCAR-5 ovarian
# [47] = test system: A498 renal
# [48] = test system: RXF 393 renal
# [49] = test system: HT29 colon
# [50] = test system: UACC-62 melanoma
# [51] = test system: MOLT-4 leukemia
# [52] = test system: NCI-H23 lung
# [53] = test system: U251 CNS
# [54] = test system: HCT-15 colon
# [55] = test system: HL-60(TB) leukemia
# [56] = test system: IGROV1 ovarian
# [57] = test system: ACHN renal
structure (smiles),measurement,setting,value
CC(=O)c1cnc2ccc(-c3cc(Cl)c(O)c(Cl)c3)nc2c1NC1CCC(CN(C)C)CC1 (stereo not drawn),GI50,[1],19.4 nM and 186 nM
same,TGI,[1],171 nM and 758 nM
same,GI50,[2],54.4 nM and 192 nM
same,TGI,[2],234 nM and 783 nM
same,GI50,[3],11.4 nM and 52.6 nM
same,TGI,[3],99 nM and 458 nM
same,GI50,[4],52.1 nM and 346 nM
same,TGI,[4],289 nM and 1420 nM
same,TGI,[5],2500 nM and > 10000 nM
same,GI50,[6],4.88 nM and 48 nM
same,GI50,[7],48.4 nM and 49.9 nM
same,TGI,[7],220 nM and 416 nM
same,TGI,[8],273 nM and 760 nM
same,TGI,[9],264 nM and 1120 nM
same,GI50,[10],31.6 nM and 185 nM
same,TGI,[10],495 nM and 772 nM
same,TGI,[11],240 nM and 1540 nM
same,GI50,[12],9.06 nM and 61.3 nM
same,TGI,[12],2500 nM and > 10000 nM
same,GI50,[13],48.6 nM and 337 nM
same,GI50,[14],12.6 nM and 109 nM
same,TGI,[14],672 nM and 535 nM
same,GI50,[15],32.9 nM and 267 nM
same,TGI,[16],1080 nM and 1760 nM
same,TGI,[17],558 nM and 2000 nM
same,TGI,[18],87.7 nM and 508 nM
same,GI50,[19],12.8 nM and 116 nM
same,TGI,[19],384 nM and 1160 nM
same,TGI,[20],105 nM and 1050 nM
same,TGI,[21],120 nM and 588 nM
same,TGI,[22],189 nM and 1220 nM
same,GI50,[23],53.1 nM and 310 nM
same,TGI,[24],570 nM and 1450 nM
same,TGI,[25],1340 nM and 2270 nM
same,GI50,[26],40.4 nM and 245 nM
same,TGI,[26],324 nM and 2580 nM
same,GI50,[27],45.1 nM and 367 nM
same,TGI,[28],78.1 nM and 562 nM
same,GI50,[29],5.49 nM
same,TGI,[29],39.8 nM
same,GI50,[30],28.9 nM and 255 nM
same,TGI,[31],107 nM and 739 nM
same,TGI,[32],55.4 nM and 306 nM
same,GI50,[33],42.5 nM and 318 nM
same,GI50,[34],44.9 nM and 191 nM
same,TGI,[35],2500 nM and > 10000 nM
same,TGI,[36],111 nM and 987 nM
same,GI50,[37],17.9 nM and 169 nM
same,TGI,[37],224 nM and 695 nM
same,GI50,[38],28.8 nM and 237 nM
same,TGI,[38],85.5 nM and 689 nM
same,GI50,[39],31.1 nM and 230 nM
same,TGI,[39],2500 nM and 3820 nM
same,GI50,[40],39.5 nM and 81.9 nM
same,TGI,[40],359 nM and 608 nM
same,TGI,[41],2500 nM and 1190 nM
same,GI50,[42],5.15 nM and 33.3 nM
same,TGI,[42],36.8 nM and 360 nM
same,TGI,[43],53.1 nM and 505 nM
same,GI50,[44],27.5 nM and 195 nM
same,TGI,[44],161 nM and 959 nM
same,GI50,[45],30.7 nM and 160 nM
same,TGI,[45],106 nM and 664 nM
same,GI50,[46],61.2 nM and 207 nM
same,TGI,[46],2500 nM and > 10000 nM
same,GI50,[47],13.7 nM and 111 nM
same,TGI,[47],55.9 nM and 403 nM
same,GI50,[48],35.8 nM and 185 nM
same,TGI,[48],93.9 nM and 419 nM
same,GI50,[49],84.4 nM and 436 nM
same,TGI,[49],888 nM and 4410 nM
CCCN1C(=O)/C(=C/c2cccc(O)c2)SC1=Nc1ccccc1,GI50,[1],21100 nM
same,TGI,[1],42500 nM
same,GI50,[2],18800 nM
same,TGI,[2],36000 nM
same,GI50,[4],20700 nM
same,TGI,[4],49900 nM
same,GI50,[5],18500 nM
same,TGI,[5],34400 nM
same,GI50,[6],22300 nM
same,TGI,[6],60000 nM
same,GI50,[50],16400 nM
same,TGI,[50],29900 nM
same,GI50,[51],38000 nM
same,TGI,[51],> 100000 nM
same,GI50,[52],19000 nM
same,TGI,[52],34300 nM
same,GI50,[8],29000 nM
same,TGI,[8],67800 nM
same,GI50,[53],14100 nM
same,TGI,[53],28200 nM
same,GI50,[9],11800 nM
same,TGI,[9],25500 nM
same,GI50,[10],11400 nM
same,TGI,[10],24000 nM
same,GI50,[12],38300 nM
same,TGI,[12],> 100000 nM
same,GI50,[13],19200 nM
same,TGI,[13],33900 nM
same,GI50,[14],22000 nM
same,TGI,[14],38000 nM
same,GI50,[54],14800 nM
same,TGI,[54],29600 nM
same,GI50,[15],19000 nM
same,TGI,[15],83800 nM
same,GI50,[16],13000 nM
same,TGI,[16],25600 nM
same,GI50,[17],11900 nM
same,TGI,[17],26900 nM
same,GI50,[18],17400 nM
same,TGI,[18],34400 nM
same,GI50,[19],22700 nM
same,TGI,[19],51300 nM
same,GI50,[20],14800 nM
same,TGI,[20],37700 nM
same,GI50,[21],17100 nM
same,TGI,[21],30800 nM
same,GI50,[22],22700 nM
same,TGI,[22],57300 nM
same,GI50,[23],17300 nM
same,TGI,[23],33100 nM
same,GI50,[24],15100 nM
same,TGI,[24],31700 nM
same,GI50,[25],15700 nM
same,TGI,[25],29100 nM
same,GI50,[55],30800 nM
same,TGI,[55],> 100000 nM
same,GI50,[26],23200 nM
same,TGI,[26],58400 nM
same,GI50,[56],20000 nM
same,TGI,[56],44400 nM
same,GI50,[27],14500 nM
same,TGI,[27],34300 nM
same,GI50,[28],17700 nM
same,TGI,[28],32300 nM
same,GI50,[29],17500 nM
same,TGI,[29],> 100000 nM
same,GI50,[57],16400 nM
same,TGI,[57],31200 nM
same,GI50,[30],19000 nM
same,TGI,[30],37900 nM
same,GI50,[31],16700 nM
same,TGI,[31],34700 nM
same,GI50,[32],19600 nM
same,TGI,[32],35200 nM
same,GI50,[33],18400 nM
same,TGI,[33],41500 nM
same,GI50,[35],6720 nM
same,TGI,[35],> 100000 nM
same,GI50,[37],24400 nM
same,TGI,[37],> 100000 nM
same,GI50,[38],16600 nM
same,TGI,[38],36500 nM
same,GI50,[39],18000 nM
same,TGI,[39],34500 nM
same,GI50,[40],20800 nM
same,TGI,[40],41200 nM
same,GI50,[41],16900 nM
same,TGI,[41],33100 nM
same,GI50,[42],15100 nM
same,TGI,[42],32900 nM
same,GI50,[43],18800 nM
same,TGI,[43],34000 nM
same,GI50,[45],6700 nM
same,TGI,[45],24000 nM
same,GI50,[46],16800 nM
same,TGI,[46],31000 nM
same,GI50,[47],2700 nM
same,TGI,[47],17100 nM
same,GI50,[48],17600 nM
same,TGI,[48],36900 nM
same,GI50,[49],17300 nM
same,TGI,[49],33800 nM
